Experimental data from patent US20170014360A1, “METHODS OF TREATING CANCER USING RAD51 SMALL MOLECULE STIMULATORS” (The University of Chicago, priority 2014, published 2017).

Tests used:
[1] = tested on: HT1080 cells; experiment: Cell survival assay in HT1080 cells with doxycycline-repressible RAD51 transgene; type: cell-based, human; details: HT1080, RAD51 overexpression by doxycycline removal; 24 hours RS-1, 6 days drug-free
Procedure: HT1080 cells carrying a doxycycline-repressible RAD51 transgene were pre-treated with varying levels of doxycycline for 24 hours. […] In lower panel, cells were subsequently incubated for 24 hours in media containing varying concentrations of RS-1. Cells were then allowed to grow in drug-free media for an additional 6 days, and indicated doxycycline concentrations were maintained throughout the entire experiment. Average survival for each condition is normalized to the 0 μM RS-1 control of that condition.
(§4) Cells were plated into 96-well tissue culture plates at a density of 300 cells per well in the presence or absence of RS-1 for 24 hours at 37° C., 5% CO2. RS-1 was then removed, and cultures were allowed to grow for approximately one week to a 50-70% confluence. Average survival from six replicates was measured using CellGlo reagent (Promega), and error bars represent the standard error.
To confirm that RS-1 toxicity is directly related to RAD51 and translocases protein levels, these proteins were experimentally manipulated in cells. First, RAD51 was overexpressed in human fibrosarcoma HT1080 cells carrying a doxycycline-repressible RAD51 transgene.

[2] = target: T1, purified human RAD51 protein (Homo sapiens, UniProt Q06609); experiment: Measurement of RAD51 binding to DNA by fluorescence polarization; details: 75 nM RAD51, various concentrations of RS-1, 100 nM DNA substrate
T1 sequence (Q06609 1-339): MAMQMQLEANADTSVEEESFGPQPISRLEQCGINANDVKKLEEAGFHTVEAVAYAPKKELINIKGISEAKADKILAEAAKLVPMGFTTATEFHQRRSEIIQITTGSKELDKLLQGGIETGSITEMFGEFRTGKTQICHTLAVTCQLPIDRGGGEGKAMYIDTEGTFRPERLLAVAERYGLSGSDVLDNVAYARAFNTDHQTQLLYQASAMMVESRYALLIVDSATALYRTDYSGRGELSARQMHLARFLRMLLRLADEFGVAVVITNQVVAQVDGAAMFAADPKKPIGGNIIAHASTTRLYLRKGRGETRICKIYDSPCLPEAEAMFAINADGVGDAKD
Procedure: Various concentrations of RS-1 were incubated with purified hRAD51 protein and a fluorescently tagged DNA substrate, consisting of either a ssDNA oligonucleotide (DHD162-CD-CF) or a dsDNA double hairpin (DHD162). Binding of RAD51 to DNA was measured as a function of fluorescence polarization of the tag, as described in the methods section.
Experiments were performed as previously described with some modifications (Budke, et al., 2012). Briefly, 75 nM purified human RAD51 protein was incubated with various concentrations of RS-1 in FP reaction buffer at 37° C. for 40 minutes. FP reaction buffer consisted of 20 mM Hepes pH 7.5, 10 mM MgCl2, 0.25 μM BSA, 2% glycerol, 30 mM NaCl, 4% DMSO, 0.1 mM tris(2-carboxyethyl)phosphine (TCEP), and 2 mM ATP. Fluorescently tagged DNA substrate was then added to a final concentration of 100 nM (nucleotide concentration for ssDNA or base pair concentration for dsDNA) and incubated at 37° C. for another 40 minutes. DNA substrates consisted of either an Alexa Fluor 488-labeled oligo-dT 45-mer, a fluorescein-labeled ssDNA oligonucleotide (DHD162-CD-CF), or a fluorescein-labeled dsDNA double hairpin (DHD162) which were previously described (Budke, et al., 2013). Fluorescence polarization measurements were obtained as previously described (Budke, et al., 2012). […]

[3] = target: T2, RAD51 (Homo sapiens, UniProt Q06609); details: cited from earlier work
T2 sequence (Q06609 1-339): T1 sequence (Q06609 1-339)

[4] = tested on: normal primary human fibroblasts (MRC-5); experiment: Immunofluorescence microscopy to detect RAD51 and RPA foci in MRC-5 cells; type: cell-based
Procedure: (§1) FIGS. 6A-6B. […] FIG. 6A: Cells were grown on cover slips, incubated for 6 hours in media containing 60 μM RS-1. In the 8 Gy radiation control condition, cells were irradiated 6 hours before harvest. Cells were subsequently indirectly immunostained. […] FIG. 6B: Fifty randomly selected nuclei per treatment group were examined and discrete foci were quantified.
(§2) Some cancer cells that strongly overexpress RAD51 are known to develop spontaneous RAD51 nuclear complexes (Raderschall, et al., 2002). […] PC3 prostate cancer cells and normal primary human fibroblasts (MRC-5) were treated with RS-1 and examined by immunofluorescence microscopy. To determine whether RAD51-staining structures represented sites of DNA repair vs. non-damage-associated sites, nuclei were counterstained for RPA, which forms punctuate sub-nuclear foci specifically in response to DNA damage at sites that colocalize with damage-induced RAD51 foci (Golub, et al., 1998).
(§3) Cells were grown on coverslips and treated with RS-1 or radiation as indicated. They were subsequently fixed with 3% paraformaldahyde/3.4% sucrose, and permeabilized with a standard buffer (20 mM HEPES pH 7.4, 0.5% TritonX-100, 50 mM NaCl, 3 mM MgCl2, 300 mM sucrose). […] Images were recorded at a single representative focal plane using a CCD camera. For each experimental condition, 50 randomly selected nuclei were quantified using NIH Image software.

[5] = tested on: PC3 cells; experiment: Cell survival assay in PC3 cells (with or without siRNA knockdown); type: cell-based, human
Procedure: PC3 cells were treated with various concentrations of RAD51 siRNA for 48 hours. […] Following RNAi, cells were allowed to grow for 7 days and assayed for viability in the absence of additional treatment. FIG. 3B: Following RNAi, cells were incubated for 24 hours in media containing varying concentrations of RS-1. Cells were then allowed to grow in drug-free media for an additional 6 days. Average survival for each condition is normalized to the 0 μM RS-1 control of that condition.
PC3 cells were treated with siRNA against RAD54L, RAD54B, both, or a non-silencing (NS) control for 48 hours. Following RNAi, cells were subsequently incubated for 24 hours in media containing varying concentrations of RS-1. Cells were then allowed to grow in RS-1-free media for an additional 6 days. Average survival for each condition is normalized to the 0 μM RS-1 control of that condition.
as §4
The RAD51 siRNA and the All-Stars negative control siRNA (NS) were ordered from Qiagen. RAD54B siRNAs were ordered from Invitrogen (Stealth). The RAD54L siRNA cocktail was ordered from Santa Cruz (sc-36362). All siRNAs were transfected using RNAiMax as per manufacturer's instructions (Invitrogen). Briefly, 2.0×10^5 cells were plated in 6 well dishes containing siRNA complexes to achieve the desired final concentration of siRNAs. The RAD54B and RAD54L siRNAs consisted of a cocktail of three independent siRNAs. The concentration of siRNAs transfected were 25 nM for RAD54L and 50 nM RAD54B. Co-depletion of RAD54L and RAD54B was performed by transfecting cells simultaneously with both siRNAs. At 48 hours post transfection, cells were harvested for cell survival assays and western blotting as described.

[6] = tested on: PC3 prostate cancer cells; experiment: Immunofluorescence microscopy to detect RAD51 and RPA foci in PC3 cells; type: cell-based, human
Procedure: as §1, §2, §3

[7] = tested on: PC3 tumors; experiment: PC3 xenograft tumor model in athymic nude mice
Procedure: FIG. 7. […] PC3 tumors were induced in the hind limbs of athymic nude mice. Mice were then randomized into two treatment groups. Starting on day 0, mice then received 5 daily intra-peritoneal injections with either RS-1 (110 mg/kg) or vehicle alone control. Median tumor volume is plotted, normalized to the starting tumor volume on day 0.
An in-vivo tumor model was used to further test the concept of RAD51 stimulation as a cancer treatment. Subcutaneous xenograft PC3 tumors were induced in the hind limbs of athymic nude mice, and the mice were subsequently treated with daily intra-peritoneal injections of RS-1 for five consecutive days. The daily dose administered to the mice was designed to yield an idealized concentration of 300 μM within the aqueous compartment of a mouse, based on an assumption of homogenous distribution across a 21 gm animal that is composed of 70% water.
Xenograft tumors were induced in the hind limbs of athymic nude mice by subcutaneous injection of 1×10^6 PC3 cells, and tumors were allowed to grow to an average volume of about 50 mm^3. Mice were then were randomized into treatment groups, each consisting of 7 mice. […] Tumor measurements were taken 3 times per week with a caliper and expressed as tumor volume, which was approximated from the product of width×length×height×0.5.

[8] = target: T2, RAD51; details: cited from earlier work; remark: listed apart in the source
[9] = 110 mg/kg intra-peritoneal, 5 daily injections

O=C(Nc1ccc(Br)cc1)c1ccc(Br)c(S(=O)(=O)NCc2ccccc2)c1 [RS-1, 3-Benzylsulfamoyl-4-bromo-N-(4-bromo-phenyl)-benzamide]
sensitivity to RS-1 of cells with the highest RAD51 expression levels [1]: significantly more sensitive to RS-1 | binding of RAD51 to ssDNA and dsDNA [2]: stimulates the binding of RAD51 to both ssDNA and dsDNA | protection of RAD51 filaments from high salt ([3]; buffers containing high salt concentration): protects these filaments from buffers containing high salt concentration | RAD51 filament formation (further study) [3]: enhances RAD51 filament formation | nuclei with >10 RAD51 foci/nucleus ([4]; MRC-5, 60 μM RS-1, 6 hours): no MRCS nuclei exhibited >10 RAD51 foci/nucleus | cells with >10 RPA foci/nucleus ([4]; MRC-5, after RS-1 treatment): Neither cell type exhibited >10 RPA foci/nucleus in any cells | effect of RAD51 depletion on RS-1 induced toxicity ([5]; PC3, RAD51 siRNA 48 hours, then 24 hours RS-1): significant protection from RS-1 induced toxicity | LD90 ([5]; PC3, relative to panel of cell lines): low LD90 | effect of RAD54B or RAD54L knockdown on RS-1 toxicity ([5]; PC3, siRNA 48 hours, then 24 hours RS-1): significantly sensitized PC3 cells to RS-1 toxicity | nuclei with >10 RAD51 foci/nucleus ([6]; PC3, 60 μM RS-1, 6 hours, no DNA damage): 43% | cells with >10 RPA foci/nucleus ([6]; PC3, after RS-1 treatment): Neither cell type exhibited >10 RPA foci/nucleus in any cells | anti-tumor response relative to vehicle-alone control [7, 9]: significant anti-tumor responses | toxic deaths [7, 9]: no toxic deaths observed | delay in tumor regrowth relative to vehicle-alone control ([7]; 110 mg/kg intra-peritoneal, 5 daily injections, remaining tumors): > 2 week | tumors that completely disappeared after treatment and never regrew ([7]; 110 mg/kg intra-peritoneal, 5 daily injections, two month observation, 3 of 7): 43% | transient weight loss ([7]; during the treatment week, regained post-treatment): about 10% | DNA strand invasion activity of RAD51 [8]: capable of stimulating DNA strand invasion activity of RAD51
